Data from patent EP0678516B1, “Preparation of 2-bromo-5-(2-bromo-2-nitrovinyl)-furan and its use as microcide” (CENTRO DE BIOACTIVOS QUIMICOS DE LA UNIVERSIDAD CENTRAL DE …, priority 1994, dated 1995).
In brackets after ≈: the same amount, converted by molar mass.

Legend:
Experiment in all cases: In vitro MIC (serial dilution)
Format in all cases: cell-based
Aspergillus sp. = tested on: Aspergillus sp.
Method: (§1) The antimicrobial sensitivity was first evaluated "in vitro" using the serial dilution method for bacteria and fungi. Other growth methods in agar cultures were included for other species. The liquid and solid mediums used were Mueller-Hinton, Tryptona Soya, Sabouraud Dextrosa, Sabouraud Maltose and other mediums in accordance with the cultural demands of the micro-organisms valued.
(§2) The temperature and incubation period was adjusted to conditions and characteristics of the micro-organisms used.
(§3) The Minimal Inhibitory Concentration (MIC) was calculated in terms of MIC50 and MIC90 in µg/ml.

Bacillus alvei = settings: Paenibacillus alvei
Method: as §1, §2, §3

Candida albicans = tested on: Candida albicans
Method: as §1, §2, §3

Candida guilliermondi = tested on: Candida guilliermondi
Method: as §1, §2, §3

Candida krusei = settings: Pichia kudriavzevii
Method: as §1, §2, §3

Candida parasilosis = tested on: Candida parasilosis
Method: as §1, §2, §3

Candida pseudotropicalis = settings: Kluyveromyces marxianus
Method: as §1, §2, §3

Candida stellatoidea = settings: Candida albicans
Method: as §1, §2, §3

Candida tropicalis = tested on: Candida tropicalis
Method: as §1, §2, §3

Candida zeyfanoide = tested on: Candida zeyfanoide
Method: as §1, §2, §3

Corynebacterium pyogenes = settings: Rhodococcus (subgen. Prescottella) equi
Method: as §1, §2, §3

Enterobacter spp. = tested on: Enterobacter spp.
Method: as §1, §2, §3

Epidermophyton floccasum = settings: only one value given
Method: as §1, §2, §3

Escherichia coli = tested on: Escherichia coli
Method: as §1, §2, §3

Fusarium sp. = settings: read-out: Minimal Inhibitory Concentration (MIC)
Method: as §1, §2, §3

Haemophilus influenzae = tested on: Haemophilus influenzae
Method: as §1, §2, §3

[1] = tested on: Klebsiella spp. (including K. pneumoniae)
Method: as §1, §2, §3

Leptospira canicola = settings: Leptospira interrogans
Method: as §1, §2, §3

Leptospira pomona = tested on: Leptospira pomona
Method: as §1, §2, §3

Listeria monocytogenes = tested on: Listeria monocytogenes
Method: as §1, §2, §3

Microsporum canis = tested on: Microsporum canis
Method: as §1, §2, §3

Microsporum gypseum = settings: Nannizzia gypsea
Method: as §1, §2, §3

Moracella bovis = tested on: Moracella bovis
Method: as §1, §2, §3

Neisseria meningitidis = tested on: Neisseria meningitidis
Method: as §1, §2, §3

Pasteurella haemolytica = settings: Mannheimia haemolytica
Method: as §1, §2, §3

Pasteurella multocida = tested on: Pasteurella multocida
Method: as §1, §2, §3

Proteus mirabilis = tested on: Proteus mirabilis
Method: as §1, §2, §3

Proteus morganii = settings: Morganella morganii
Method: as §1, §2, §3

Proteus rettgeri = settings: Providencia rettgeri
Method: as §1, §2, §3

Proteus vulgaris = tested on: Proteus vulgaris
Method: as §1, §2, §3

Pseudomonas aerguinosa = tested on: Pseudomonas aerguinosa
Method: as §1, §2, §3

Salmonella choleraesuis = settings: Salmonella enterica
Method: as §1, §2, §3

Salmonella dublin = settings: Salmonella enterica
Method: as §1, §2, §3

Salmonella enteritidis = settings: Salmonella enterica
Method: as §1, §2, §3

Salmonella oxford = tested on: Salmonella oxford
Method: as §1, §2, §3

Salmonella thyphi = tested on: Salmonella thyphi
Method: as §1, §2, §3

Sarcina lutea = settings: Micrococcus luteus
Method: as §1, §2, §3

Serratia marcescens = tested on: Serratia marcescens
Method: as §1, §2, §3

Staphylococcus albus = tested on: Staphylococcus albus
Method: as §1, §2, §3

Staphylococcus aureus = tested on: Staphylococcus aureus
Method: as §1, §2, §3

Streptococcus agalactiae = tested on: Streptococcus agalactiae
Method: as §1, §2, §3

[2] = tested on: Trichophyton mentagrophytes
Method: as §1, §2, §3

Trichophyton rubrum = tested on: Trichophyton rubrum
Method: as §1, §2, §3

O=[N+]([O-])C(Br)=Cc1ccc(Br)o1 [Product G-1, 2-bromo-5-(2-bromo-2-nitro-vinyl)-furan]
MIC50 (Aspergillus sp.): 16.2 µg/mL (≈ 54.6 µM) | MIC90 (Aspergillus sp.): 48.3 µg/mL (≈ 163 µM) | MIC50 (Bacillus alvei): 2.21 µg/mL (≈ 7.44 µM) | MIC90 (Bacillus alvei): 5.08 µg/mL (≈ 17.1 µM) | MIC50 (Candida albicans): 3.11 µg/mL (≈ 10.5 µM) | MIC90 (Candida albicans): 7.95 µg/mL (≈ 26.8 µM) | MIC50 (Candida guilliermondi): 1.92 µg/mL (≈ 6.47 µM) | MIC90 (Candida guilliermondi): 2.84 µg/mL (≈ 9.57 µM) | MIC50 (Candida krusei): 1.92 µg/mL (≈ 6.47 µM) | MIC90 (Candida krusei): 2.84 µg/mL (≈ 9.57 µM) | MIC50 (Candida parasilosis): 3.56 µg/mL (≈ 12 µM) | MIC90 (Candida parasilosis): 6.93 µg/mL (≈ 23.3 µM) | MIC50 (Candida pseudotropicalis): 1.92 µg/mL (≈ 6.47 µM) | MIC90 (Candida pseudotropicalis): 3.56 µg/mL (≈ 12 µM) | MIC50 (Candida stellatoidea): 1.92 µg/mL (≈ 6.47 µM) | MIC90 (Candida stellatoidea): 3.56 µg/mL (≈ 12 µM) | MIC50 (Candida tropicalis): 2.78 µg/mL (≈ 9.36 µM) | MIC90 (Candida tropicalis): 5.29 µg/mL (≈ 17.8 µM) | MIC50 (Candida zeyfanoide): 1.92 µg/mL (≈ 6.47 µM) | MIC90 (Candida zeyfanoide): 3.56 µg/mL (≈ 12 µM) | MIC50 (Corynebacterium pyogenes): 3.56 µg/mL (≈ 12 µM) | MIC90 (Corynebacterium pyogenes): 5.59 µg/mL (≈ 18.8 µM) | MIC50 (Enterobacter spp.): 5.3 µg/mL (≈ 17.9 µM) | MIC90 (Enterobacter spp.): 17.2 µg/mL (≈ 57.8 µM) | MIC50 (Epidermophyton floccasum): 12.5 µg/mL (≈ 42.1 µM) | MIC50 (Escherichia coli): 7.53 µg/mL (≈ 25.4 µM) | MIC90 (Escherichia coli): 16 µg/mL (≈ 53.8 µM) | MIC (Fusarium sp.): 50 µg/mL (≈ 168 µM) | MIC50 (Haemophilus influenzae): 3.51 µg/mL (≈ 11.8 µM) | MIC90 (Haemophilus influenzae): 39.2 µg/mL (≈ 132 µM) | MIC50 [1]: 11 µg/mL (≈ 37 µM) | MIC90 [1]: 21.3 µg/mL (≈ 71.9 µM) | MIC50 (Leptospira canicola): 9.36 µg/mL (≈ 31.5 µM) | MIC90 (Leptospira canicola): 15.4 µg/mL (≈ 51.8 µM) | MIC50 (Leptospira pomona): 8.84 µg/mL (≈ 29.8 µM) | MIC90 (Leptospira pomona): 11.7 µg/mL (≈ 39.3 µM) | MIC50 (Listeria monocytogenes): 3.13 µg/mL (≈ 10.5 µM) | MIC90 (Listeria monocytogenes): 5.44 µg/mL (≈ 18.3 µM) | MIC50 (Microsporum canis): 7.91 µg/mL (≈ 26.6 µM) | MIC90 (Microsporum canis): 40.6 µg/mL (≈ 137 µM) | MIC50 (Microsporum gypseum): 12.5 µg/mL (≈ 42.1 µM) | MIC90 (Microsporum gypseum): 20.8 µg/mL (≈ 70 µM) | MIC50 (Moracella bovis): 2.63 µg/mL (≈ 8.86 µM) | MIC90 (Moracella bovis): 5.08 µg/mL (≈ 17.1 µM) | MIC50 (Neisseria meningitidis): 1.84 µg/mL (≈ 6.2 µM) | MIC90 (Neisseria meningitidis): 3.47 µg/mL (≈ 11.7 µM) | MIC50 (Pasteurella haemolytica): 3.72 µg/mL (≈ 12.5 µM) | MIC90 (Pasteurella haemolytica): 5.63 µg/mL (≈ 19 µM) | MIC50 (Pasteurella multocida): 3.59 µg/mL (≈ 12.1 µM) | MIC90 (Pasteurella multocida): 9.47 µg/mL (≈ 31.9 µM) | MIC50 (Proteus mirabilis): 9.36 µg/mL (≈ 31.5 µM) | MIC90 (Proteus mirabilis): 24.1 µg/mL (≈ 81.3 µM) | MIC50 (Proteus morganii): 3.13 µg/mL (≈ 10.5 µM) | MIC90 (Proteus morganii): 10.2 µg/mL (≈ 34.2 µM) | MIC50 (Proteus rettgeri): 2.78 µg/mL (≈ 9.36 µM) | MIC90 (Proteus rettgeri): 9.92 µg/mL (≈ 33.4 µM) | MIC50 (Proteus vulgaris): 5.95 µg/mL (≈ 20 µM) | MIC90 (Proteus vulgaris): 19.8 µg/mL (≈ 66.5 µM) | MIC50 (Pseudomonas aerguinosa): 7.84 µg/mL (≈ 26.4 µM) | MIC90 (Pseudomonas aerguinosa): 15 µg/mL (≈ 50.4 µM) | MIC50 (Salmonella choleraesuis): 5.57 µg/mL (≈ 18.8 µM) | MIC90 (Salmonella choleraesuis): 10.5 µg/mL (≈ 35.4 µM) | MIC50 (Salmonella dublin): 4.38 µg/mL (≈ 14.8 µM) | MIC90 (Salmonella dublin): 5.73 µg/mL (≈ 19.3 µM) | MIC50 (Salmonella enteritidis): 6.86 µg/mL (≈ 23.1 µM) | MIC90 (Salmonella enteritidis): 11.5 µg/mL (≈ 38.7 µM) | MIC50 (Salmonella oxford): 4.42 µg/mL (≈ 14.9 µM) | MIC90 (Salmonella oxford): 5.83 µg/mL (≈ 19.6 µM) | MIC50 (Salmonella thyphi): 2.5 µg/mL (≈ 8.42 µM) | MIC90 (Salmonella thyphi): 10 µg/mL (≈ 33.7 µM) | MIC50 (Sarcina lutea): 1.56 µg/mL (≈ 5.25 µM) | MIC90 (Sarcina lutea): 4.43 µg/mL (≈ 14.9 µM) | MIC50 (Serratia marcescens): 5.03 µg/mL (≈ 16.9 µM) | MIC90 (Serratia marcescens): 10.9 µg/mL (≈ 36.9 µM) | MIC50 (Staphylococcus albus): 10.2 µg/mL (≈ 34.5 µM) | MIC90 (Staphylococcus albus): 19.8 µg/mL (≈ 66.8 µM) | MIC50 (Staphylococcus aureus): 5.91 µg/mL (≈ 19.9 µM) | MIC90 (Staphylococcus aureus): 12.9 µg/mL (≈ 43.6 µM) | MIC50 (Streptococcus agalactiae): 1.99 µg/mL (≈ 6.7 µM) | MIC90 (Streptococcus agalactiae): 4.55 µg/mL (≈ 15.3 µM) | MIC90 [2]: 40.6 µg/mL (≈ 137 µM) | MIC50 ([2]; read-out: MIC50 values): 17.7 µg/mL (≈ 59.5 µM) | MIC50 (Trichophyton rubrum): 13.8 µg/mL (≈ 46.5 µM) | MIC90 (Trichophyton rubrum): 24 µg/mL (≈ 80.9 µM)
